# Measured values taken from patent US20250325517A1, “ORAL DOSAGE FORMS OF ELRAGLUSIB” (Actuate Therapeutics, Inc., priority 2022, published 2025).
# Assay: Kinetic solubility of six ASDs in biorelevant media (SGF, FaSSIF, FeSSIF) at 37° C., 1 and 2 h
# Type: physicochemical
# Procedure: The three biorelevant media were: SGF, FaSSIF, and FeSSIF. These were prepared using procedure and FaSSIF/FeSSIF/FaSSGF Powder obtained from Biorelevant.com (https://biorelevant.com/learning_center/how-make-fassif/). A suspension of each ASD was prepared in SGF, FaSSIF, and FeSSIF and each was allowed to stir at 400 rpm. An aliquot of the supernatant was taken out at 1 and 2 hours, syringe filtered using a cellulose acetate filter ([…] pore size) and analyzed by HPLC. The solubilities of each ASD in SGF, FaSSIF, and FeSSIF are presented in Table 2A-8, Table 2A-9, and Table 2A-10, respectively. […] In addition, at 2 hours the remaining solids were analyzed by XRPD. […] These peaks correspond to residual FeSSIF buffer crystallizing on the ASD solids upon drying. (See Tables 2A-8, -9, and -10).
structure (smiles),measurement,setting,value
Cn1cc(C2=C(c3coc4ccc(F)cc34)C(=O)NC2=O)c2cc3c(cc21)OCO3 [NA],1 hr solubility in FeSSIF (n = 2),"37° C., 400 rpm",5 µg/mL
same,2 hr solubility in FeSSIF (n = 2),"37° C., 400 rpm",6 µg/mL
same,XRPD after FeSSIF,solids remaining at 2 hours,Form I + one peak ~9°
